Results published in PMC4331264 (Biochimica et biophysica acta, 2015).
Like-named read-outs stand apart in the source and are kept apart here.

Key:
[1] = system: Saccharomyces cerevisiae LM102 cells expressing Ste2p-FT-HT; assay: Growth arrest; assay type: cell-based; details: for growth arrest activity of peptide alone: peptide alone 15 μg/disk, no α-factor; for halo (zone of growth inhibition) area on co-spotting with α-factor: α-factor 0.1 μg/disk plus peptide 15 μg/disk, three replicates; for halo area in presence of novobiocin: novobiocin 2.2 mg/4.5 ml Noble agar-cell mixture
[2] = system: Ste2p-FT-HT signalling in LM102 cells (FUS1-lacZ); assay: FUS1-lacZ reporter gene assay; assay type: cell-based, Saccharomyces cerevisiae; details: for FUS1-lacZ reporter gene activity of peptide alone: peptide alone (30 μM), absence of α-factor; for increase in FUS1-lacZ reporter gene activity over α-factor alone: α-factor 50 nM plus peptide 30 μM, 90 min, 30°C, mean of three determinations
[3] = system: Ste2p; details: cited from earlier work
[4] = system: Ste2p; details: cited from earlier work; remark: listed apart in the source
[5] = target: T1, Ste2p-FT-HT (Saccharomyces cerevisiae, UniProt D6VTK4, C252S/C59S); assay type: binding; details: [3H]α-factor 5 nM; novobiocin 10^−4 M to 10^−11 M; 30 min on ice
[6] = target: T1, Ste2p-FT-HT; assay type: binding; details: [Bio-DOPA]11-mer 85 μM
[7] = target: T1, Ste2p-FT-HT; assay type: binding; details: read-out: cross-linking of [Bio-DOPA]13-mer, % of control, novobiocin 5 mM, [Bio-DOPA]13-mer 10 μM

T1 sequence (D6VTK4 whole entry C59S/C252S): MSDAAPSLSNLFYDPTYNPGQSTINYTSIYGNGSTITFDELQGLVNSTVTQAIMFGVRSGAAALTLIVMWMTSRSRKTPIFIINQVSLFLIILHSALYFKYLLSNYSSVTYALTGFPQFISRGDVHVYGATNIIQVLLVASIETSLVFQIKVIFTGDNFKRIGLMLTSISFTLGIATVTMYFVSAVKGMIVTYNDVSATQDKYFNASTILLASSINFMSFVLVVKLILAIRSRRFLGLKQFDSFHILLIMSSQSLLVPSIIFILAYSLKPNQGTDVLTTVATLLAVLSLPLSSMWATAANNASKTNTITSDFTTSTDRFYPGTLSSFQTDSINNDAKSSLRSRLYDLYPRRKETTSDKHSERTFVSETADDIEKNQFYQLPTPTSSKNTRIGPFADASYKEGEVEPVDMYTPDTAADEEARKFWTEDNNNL

Question: Which results are given for “DOPA-HWLQLK(BiotinACA)PGQP [[Bio-DOPA]11-mer, [DOPA^1, K^7 (BiotinACA),desM^12desY^13] α-factor]”?
Answer: growth arrest activity of peptide alone [1]: no intrinsic biological activity; halo (zone of growth inhibition) area on co-spotting with α-factor [1]: 309 ± 27 mm^2; FUS1-lacZ reporter gene activity of peptide alone [2]: no intrinsic biological activity; increase in FUS1-lacZ reporter gene activity over α-factor alone [2]: approximately 2 fold

Question: With “[DOPA^1, K^7 (BiotinACA)] α-factor [[Bio-DOPA]13-mer]” as the compound, how does the biological activity ([3]; binds the orthosteric site of the receptor) read?
Answer: Its biological activity is “retains biological activity”.

Question: What does the source list for WHWLQLKPGQP [11-mer]?
Answer: growth arrest activity of peptide alone [1]: no biological activity; halo (zone of growth inhibition) area on co-spotting with α-factor [1]: 382 ± 36 mm^2; FUS1-lacZ reporter gene activity of peptide alone [2]: did not stimulate reporter gene activity over control levels; increase in FUS1-lacZ reporter gene activity over α-factor alone [2]: 2.5 fold; competition for binding with α-factor [4]: did not compete for binding with α-factor; influence on affinity of the receptor for α-factor ([4]; wild-type yeast strain): did not influence the affinity of the receptor for the ligand; innate biological activity ([3]; wild-type yeast strain): no innate biological activity; agonist activity in supersensitive mutant ([3]; yeast mutant supersensitive to the ligand): very weak agonist

Question: For `CO[C@@H]1[C@@H](OC(N)=O)[C@@H](O)[C@H](Oc2ccc3c(O)c(NC(=O)c4ccc(O)c(CC=C(C)C)c4)c(=O)oc3c2C)OC1(C)C` [novobiocin], which “competition with [3H]α-factor for binding to Ste2p-FT-HT” value [5] is on record?
Answer: Its value is “did not prevent α-factor binding to the receptor”.

Question: And the “maximal inhibition of [Bio-DOPA]11-mer cross-linking” value ([6]; between 10 and 50 mM novobiocin, Fig. 6)?
Answer: Its value is ~ 90%.

Question: And the remaining activity at 5000 µM ([6]; read-out: labeling (cross-linking of [Bio-DOPA]11-mer), % of control level, novobiocin 5 mM, average over 3 replicate blots)?
Answer: The remaining activity at 5000 µM was 26%.

Question: What about the “intrinsic agonistic activity in growth arrest assay” value ([1]; novobiocin by itself, up to 2.2 mg/disk) of the same compound?
Answer: The value was “no measurable, intrinsic agonistic activity”.

Question: And the “increase of halo area in presence of novobiocin, without paper disk” value ([1]; α-factor 10 ng spotted directly onto lawn containing novobiocin 2.2 mg/lawn)?
Answer: Its value is 45%.

Question: And the “halo area in presence of novobiocin” value ([1]; α-factor 0.1 μg/disk)?
Answer: The value was 155 ± 24 mm^2.

Question: And the “halo area in presence of novobiocin” value ([1]; α-factor 0.2 μg/disk)?
Answer: Its value is 273 ± 14 mm^2.

Question: What about the “FUS1-lacZ response to novobiocin in presence of α-factor” value ([2]; 25 nM α-factor, repeated three times) of the same compound?
Answer: Its value is “dose-dependent increase in activity up to 12.5 μM”.

Question: And the “FUS1-lacZ reporter gene activity, novobiocin by itself” value ([2]; no α-factor, concentrations up to 37.5 μM)?
Answer: The value was “failed to increase reporter gene activity”.

Question: What about the “FUS1-lacZ reporter gene activity, novobiocin by itself, higher amounts” value ([2]; no α-factor, up to 400 μM, data not shown) of the same compound?
Answer: The value was “failed to stimulate reporter gene activity”.

Question: And the “agonistic activity in growth arrest assays” value ([3]; S. cerevisiae strain supersensitive to α-factor)?
Answer: Its value is “weak agonistic activity”.

Question: And the remaining activity at 5000 µM ([7]; average over 3 replicate blots)?
Answer: Its remaining activity at 5000 µM is 118%.

Question: And the remaining activity at 5000 µM ([7]; blot in Fig. 5)?
Answer: Its remaining activity at 5000 µM is 136%.
